Laboratory results published in US20070264355A1, “BINARY COMPOSITIONS AND METHODS FOR STERILIZATION” (Binary, LLC, priority 2005, published 2007).

How the values were obtained:
Bacillus subtilis spores = experiment: Microbicidal activity of commonly used antiseptics against Bacillus subtilis spores; assay type: cell-based; conditions: inoculum 1865000 CFU
Procedure: (§1) The performance of commonly used antiseptics was tested against Bacillus subtilis and Staphylococcus aureus, following the general procedure of Example 1, to assess the improvement provided by the binary system over these compounds.
After 60 minutes of exposure to the organisms, the individual antiseptics, indicated in Table 15 and Table 16, were neutralized using the corresponding neutralizing solutions prepared as listed below in Materials. Chlorhexidine and IPA were neutralized with 500 microliters of a solution containing 3% Saponin, 3% Tween-80, 0.3% lecithin, and 0.1% histidine. Povidone Iodine was neutralized with 500 microliters of thiosulfate solution (2.4%).

Staphylococcus aureus = experiment: Microbicidal activity of commonly used antiseptics against Staphylococcus aureus; assay type: cell-based; conditions: inoculum 1475000 CFU
Procedure: as §1
[…] Chlorhexidine and IPA were neutralized with 500 microliters of a solution containing 3% Saponin, 3% Tween-80, 0.3% lecithin, and 0.1% histidine. Povidone Iodine was neutralized with 500 microliters of thiosulfate solution (2.4%).

[1] = two percent, compared to 70% isopropyl alcohol and 10% povidone-iodine; cited from earlier work

## [H]/N=C(\N/C(=N/[H])NCCCCCCNC(=N)NC(=N)Nc1ccc(Cl)cc1)Nc1ccc(Cl)cc1 [Chlorhexidine, Chlorhexidine Gluconate]
Bacillus subtilis spores; Chlorhexidine 0.020% 60 min
  Log 10 (CFU + 1) Survivors: 5.8
  Log Reduction: 0.4
  Total Viability (CFU): 672000 CFU
Bacillus subtilis spores; Chlorhexidine 0.200% 60 min
  Log 10 (CFU + 1) Survivors: 4.3
  Log Reduction: 2.0
  Total Viability (CFU): 20020 CFU
Bacillus subtilis spores; Chlorhexidine 2% 60 min
  Log 10 (CFU + 1) Survivors: 5.0
  Log Reduction: 1.3
  Total Viability (CFU): 102200 CFU
Bacillus subtilis spores; Chlorhexidine 20% 60 min
  Log 10 (CFU + 1) Survivors: 5.5
  Log Reduction: 0.7
  Total Viability (CFU): 350000 CFU
Staphylococcus aureus; Chlorhexidine 0.020% 15 min
  Log 10 (CFU + 1) Survivors: 0.0
  Log Reduction: 6.2
  Total Viability (CFU): 0 CFU
Staphylococcus aureus; Chlorhexidine 0.200% 15 min
  Log 10 (CFU + 1) Survivors: 0.0
  Log Reduction: 6.2
  Total Viability (CFU): 0 CFU
Staphylococcus aureus; Chlorhexidine 2% 15 min
  Log 10 (CFU + 1) Survivors: 0.0
  Log Reduction: 6.2
  Total Viability (CFU): 0 CFU
Staphylococcus aureus; Chlorhexidine 20% 15 min
  Log 10 (CFU + 1) Survivors: 0.0
  Log Reduction: 6.2
  Total Viability (CFU): 0 CFU
[1]
  prevention of catheter-related infections: superior
